Assay results taken from patent US6727264B1 (Synaptic Pharmaceutical Corporation, priority 2001, dated 2004).

target: rat MCH-1 (Rattus norvegicus, UniProt P97639); assay: Radioligand binding assay at cloned rat MCH1 receptor ([3H] Compound A); design: host or cells: Peak rapid 293 (Peakr293) cells, transient calcium phosphate transfection, membranes; settings: cloned rat MCH1 receptor, membranes from Peakr293 cells, 0.08 nM [3H] Compound A; read-out: Ki (nM) rMCH1
Sequence (P97639 whole entry): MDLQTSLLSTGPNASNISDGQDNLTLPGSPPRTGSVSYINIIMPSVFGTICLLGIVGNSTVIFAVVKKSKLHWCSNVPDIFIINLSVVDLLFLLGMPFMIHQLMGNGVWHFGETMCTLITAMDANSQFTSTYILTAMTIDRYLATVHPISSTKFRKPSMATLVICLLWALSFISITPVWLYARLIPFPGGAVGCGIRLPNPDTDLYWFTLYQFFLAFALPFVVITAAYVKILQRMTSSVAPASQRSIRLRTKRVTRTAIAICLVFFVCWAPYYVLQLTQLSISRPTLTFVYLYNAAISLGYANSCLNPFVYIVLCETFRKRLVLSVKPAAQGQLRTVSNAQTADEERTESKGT

Going from `CC(C)C(=O)Nc1cccc(C2CCN(CC[C@H](NC(=O)c3cccc4ccccc34)c3ccccc3)CC2)c1` [Example 311] to `CC(C)C(=O)Nc1cccc(C2CCN(CC[C@H](NC(=O)c3ccccn3)c3ccccc3)CC2)c1` [Example 309], the Ki rises from 43 nM to 310 nM (7.2-fold). The first binds more tightly here.

First: Cc1nn(C)c2ncc(C(=O)N[C@@H](CCN3CCC(c4cccc(NC(=O)C(C)C)c4)CC3)c3ccccc3)c(Cl)c12 [Example 317]
Second: CCCc1nn(-c2ccc(Cl)cc2)cc1C(=O)N[C@@H](CCN1CCC(c2cccc(NC(=O)C(C)C)c2)CC1)c1ccccc1 [Example 316]
The Ki of the first is 13-fold higher: 110 nM for the first, 8.3 nM for the second.

`CC(C)C(=O)Nc1cccc(C2CCN(CC[C@H](NC(=O)c3cnn(-c4ccc([N+](=O)[O-])cc4)c3C(F)(F)F)c3ccccc3)CC2)c1` [Example 327] and `CC(C)C(=O)Nc1cccc(C2CCN(CCCC(OC(=O)Cc3ccc(F)cc3)c3ccccc3)CC2)c1` (centres unmarked) [Example 285] are within 1.5-fold of each other in Ki: 7.7 nM for the first, 10.3 nM for the second.

Going from `CC(C)C(=O)Nc1cccc(C2CCN(CCC(Oc3ccc(Br)cc3)c3ccc(Cl)cc3)CC2)c1` (centres unmarked) [Example 171] to `COc1ccc(C(CCN2CCC(c3cccc(NC(=O)C(C)C)c3)CC2)Oc2ccc(Cl)cc2)cc1` (centres unmarked) [Example 178], the Ki rises from 3.7 nM to 119 nM (32-fold).

`CC(C)C(=O)Nc1cccc(C2CCN(CCC(Oc3ccc(F)cc3)c3ccc4c(c3)CCC4)CC2)c1` (centres unmarked) [Example 162] and `COc1ccc(OC(CCN2CCC(c3cccc(NC(=O)C(C)C)c3)CC2)c2ccc(F)cc2)cc1` (centres unmarked) [Example 177] are within 1.5-fold of each other in Ki: 7.2 nM for the first, 6.8 nM for the second.

First: CC(C)C(=O)Nc1cccc(C2CCN(Cc3ccc(-c4ccccn4)s3)CC2)c1 [Example 225]
Second: CC(C)C(=O)Nc1cccc(C2CCN(Cc3cccc(Oc4ccccc4)c3)CC2)c1 [Example 205]
The Ki of the first is 7.6-fold higher: 214 nM for the first, 28 nM for the second. The second binds more tightly here.

Going from `CC(C)C(=O)Nc1cccc(C2CCN(C[C@H](C)COc3ccccc3Br)CC2)c1` [Example 365] to `CC(C)C(=O)Nc1cccc(C2CCN(CCCOc3ccc(Br)cc3)CC2)c1` [Example 352], the Ki falls from 42.9 nM to 13.3 nM (3.2-fold).

Compared with `CC(C)C(=O)Nc1cccc(C2CCN(CCC/C(=N\Nc3ccccn3)c3ccccc3)CC2)c1` [Example 94], `CC(C)C(=O)Nc1cccc(C2CCN(CCCc3c(-c4ccccc4)n(C)c4ccccc34)CC2)c1` [Example 391] is 9.5-fold higher in Ki: 2.3 nM for the first, 21.9 nM for the second. The first binds more tightly here.

First: COc1ccc(C(O)CCN2CCC(c3cccc(NC(=O)C(C)C)c3)CC2)cc1 (centres unmarked) [Example 128, N-(3-{1-[3-HYDROXY-3-(4- METHOXYPHENYL)PROPYL]-4-PIPERIDINYL}PHENYL)-2-METHYLPROPANAMIDE]
Second: CC(C)C(=O)Nc1cccc(C2CCN(CCCOc3ccc(F)cc3)CC2)c1 [Example 347]
The Ki of the first is 6-fold higher: 329 nM for the first, 54.8 nM for the second. The second binds more tightly here.

Compared with `Cc1ccc(C2CCN(Cc3ccc(Oc4ccc(F)c(F)c4)cc3)CC2)cc1NC(=O)C(C)C` [Example 269], `CC(C)C(=O)Nc1cccc(C2CCN(CCC(Oc3c(Cl)cccc3Cl)c3ccc(F)cc3)CC2)c1` (centres unmarked) [Example 141] is 2.2-fold higher in Ki: 27.4 nM for the first, 61 nM for the second. The first binds more tightly here.

Going from `CC(C)CCOc1ccc2ccccc2c1CN1CCC(c2cccc(NC(=O)C(C)C)c2)CC1` [Example 188] to `CCCCN(CCCC)c1ccc(CN2CCC(c3cccc(NC(=O)C(C)C)c3)CC2)cc1` [Example 261], the Ki falls from 531 nM to 6.5 nM (82-fold). The second binds more tightly here.

same assay, conditions: cloned rat MCH1 receptor; 0.08 nM [3H] Compound A; Peakr293 cell membranes; read-out: Ki (nM) rMCH1

Going from `CC(C)C(=O)Nc1cccc(C2CCN(CCCc3c(-c4cccc([N+](=O)[O-])c4)[nH]c4c3ccc3ccccc34)CC2)c1` [Example 767] to `CC(C)C(=O)Nc1cccc(C2CCN(CCCc3c(-c4ccc(Br)cc4)[nH]c4c3ccc3ccccc34)CC2)c1` [Example 752], the Ki falls from 34.8 nM to 21.7 nM (1.6-fold). The second binds more tightly here.

`CC(C)C(=O)Nc1cccc(C2CCN(Cc3cccc4c3ccn4-c3cccc(F)c3)CC2)c1` [Example 875] and `COc1cccc(-n2ccc3c(CN4CCC(c5cccc(NC(=O)C(C)C)c5)CC4)cccc32)c1` [Example 856] are within 1.5-fold of each other in Ki: 130 nM for the first, 123 nM for the second.

Compared with `CCC(=O)Nc1ccc(C2CCN(CCCCCn3ccc4ccccc43)CC2)cc1` [Example 827], `CCC(=O)Nc1cccc(C2CCN(CCCCCSc3ccccc3)CC2)c1` [Example 589] is 3.2-fold lower in Ki: 215 nM for the first, 66.6 nM for the second. The second binds more tightly here.

`CC(C)C(=O)Nc1cccc(C2CCN(CCCCCC(Oc3ccc(Br)cc3)c3ccc(F)cc3)CC2)c1` (centres unmarked) [Example 900] and `CC(C)C(=O)Nc1cccc(C2CCN(CCCCC(Oc3ccc(Br)cc3)c3ccccc3)CC2)c1` (centres unmarked) [Example 924] are within 1.5-fold of each other in Ki: 11.2 nM for the first, 13.1 nM for the second.

`CC(C)C(=O)Nc1cccc(C2CCN(CCCc3c(-c4cccc(I)c4)n(C)c4ccccc34)CC2)c1` [Example 738] and `CC(C)C(=O)Nc1cccc(C2CCN(CCCc3c(-c4cccc([N+](=O)[O-])c4)n(C)c4ccccc34)CC2)c1` [Example 772] are within 1.5-fold of each other in Ki: 10.2 nM for the first, 14.9 nM for the second.

First: CC(C)C(=O)Nc1cccc(C2CCN(CCCNC(=O)Nc3ccc(Oc4ccccc4)cc3)CC2)c1 [Example 621]
Second: CC(C)C(=O)Nc1cccc(C2CCN(CCCCCCNC(=O)c3cccnc3Oc3ccccc3)CC2)c1 [Example 627]
The Ki of the first is 1.9-fold higher: 205 nM for the first, 109 nM for the second.

First: CC(C)C(=O)Nc1cccc(C2CCN(CCCCC(Oc3ccc(Cl)cc3)c3ccc(Cl)cc3)CC2)c1 (centres unmarked) [Example 920]
Second: COc1ccc(OC(CCCCN2CCC(c3cccc(NC(=O)C(C)C)c3)CC2)c2ccc(Cl)cc2)cc1 (centres unmarked) [Example 925]
The Ki of the first is 1.9-fold lower: 6.9 nM for the first, 13.4 nM for the second.

`CC(C)C(=O)Nc1cccc(C2CCN(CCCC(=O)c3cccs3)CC2)c1` [Example 948] and `CC(C)C(=O)Nc1cccc(C2CCN(CCCCC(=O)c3cccc(Br)c3)CC2)c1` [Example 664] are within 1.5-fold of each other in Ki: 21.2 nM for the first, 21.9 nM for the second.

Going from `CC(C)C(=O)Nc1cccc(C2CCN(CCCNS(=O)(=O)c3ccc(Cl)c([N+](=O)[O-])c3)CC2)c1` [Example 640] to `CC(C)C(=O)Nc1cccc(C2CCN(CCCNS(=O)(=O)c3ccc(C(C)(C)C)cc3)CC2)c1` [Example 645], the Ki rises from 11.2 nM to 85.3 nM (7.6-fold). The first binds more tightly here.

Compared with `CC(C)C(=O)Nc1cccc(C2CCN(Cc3cccc4c3ccn4-c3cccnc3)CC2)c1` [Example 873], `CC(C)C(=O)Nc1cccc(C2CCN(Cc3cccc4ccn(-c5cccnc5)c34)CC2)c1` [Example 867] is 2.6-fold higher in Ki: 345 nM for the first, 892 nM for the second. The first binds more tightly here.

`CC(C)C(=O)Nc1cccc(C2CCN(CCCc3c(-c4ccc(I)cc4)n(-c4ccccc4)c4ccccc34)CC2)c1` [Example 747] and `CC(C)C(=O)Nc1cccc(C2CCN(CCCc3c(-c4ccccc4I)n(-c4ccccc4)c4ccccc34)CC2)c1` [Example 792] are within 1.5-fold of each other in Ki: 161 nM for the first, 122 nM for the second.

First: CC(C)C(=O)Nc1cccc(C2CCN(Cc3cn(-c4ccc(Cl)cc4)c4cc(Cl)ccc34)CC2)c1 [Example 477]
Second: CC(C)C(=O)Nc1cccc(C2CCN(Cc3cn(-c4cccc(Cl)c4)c4cc(Cl)ccc34)CC2)c1 [Example 480]
The Ki of the first is 1.7-fold higher: 14.9 nM for the first, 9 nM for the second.

`CC(C)C(=O)Nc1cccc(C2CCN(CCc3cn(-c4ccccc4)c4ccccc34)CC2)c1` [Example 408] and `Cc1cccc2c(CN3CCC(c4cccc(NC(=O)C(C)C)c4)CC3)cn(-c3ccccc3)c12` [Example 509] are within 1.5-fold of each other in Ki: 21.6 nM for the first, 24.3 nM for the second.

First: Cc1ccc2[nH]cc(CN3CCC(c4cccc(NC(=O)C(C)C)c4)CC3)c2c1 [Example 445]
Second: CC(C)C(=O)Nc1cccc(C2CCN(CCc3c[nH]c4ccc(OC(F)(F)F)cc34)CC2)c1 [Example 412]
The Ki of the first is 18-fold higher: 486 nM for the first, 27 nM for the second.

Going from `CCC(=O)Nc1cccc(C2CCN(CCCCC(=O)c3ccc(F)cc3)CC2)c1` [Example 545] to `CCC(=O)Nc1cccc(C2CCN(CCCC(=O)c3ccc(Br)cc3)CC2)c1` [Example 533], the Ki falls from 52 nM to 10.6 nM (4.9-fold). The second binds more tightly here.

Compared with `CC(=O)Nc1cccc(C2CCN(CCCNC(=O)C3=C(C)NC(=O)CC3c3ccc(F)cc3F)CC2)c1` (centres unmarked) [Example 622], `CC(C)C(=O)Nc1cccc(C2CCN(CCCNC(=O)N3C(=O)OC[C@@H]3c3cc(F)c(F)c(F)c3)CC2)c1` [Example 577] is 2.5-fold lower in Ki: 162 nM for the first, 64.7 nM for the second. The second binds more tightly here.

`O=C(CCCCN1CCC(c2cccc(NC(=O)C3CC3)c2)CC1)c1ccc(Cl)cc1` [Example 558] and `O=C(CCCN1CCC(c2cccc(NC(=O)C3CC3)c2)CC1)c1ccc(Br)cc1` [Example 544] are within 1.5-fold of each other in Ki: 20.2 nM for the first, 16.2 nM for the second.

Going from `CC(C)C(=O)Nc1cccc(C2CCN(CCCc3c(-c4ccc(Cl)cc4)[nH]c4ccc(OC(F)(F)F)cc34)CC2)c1` [Example 703] to `CC(C)C(=O)Nc1cccc(C2CCN(CCCc3c(-c4ccc(C(F)(F)F)cc4)[nH]c4c3ccc3ccccc34)CC2)c1` [Example 686, 2-METHYL-N-{3-[1-(3-(2-[4-(TRIFLUOROMETHYL)PHENYL]-1H-BENZO [G]INDOL-3-YL}PROPYL)-4-PIPERIDINYL]PHENYL}PROPANAMIDE], the Ki rises from 16.6 nM to 33.9 nM (2-fold).

Going from `Cc1cccc2c(CCN3CCC(c4cccc(NC(=O)C(C)C)c4)CC3)c(-c3ccccc3)[nH]c12` [Example 401] to `COc1cccc2c(CCCCN3CCC(c4cccc(NC(=O)C(C)C)c4)CC3)c(-c3ccccc3)[nH]c12` [Example 406], the Ki falls from 44.6 nM to 12.3 nM (3.6-fold). The second binds more tightly here.

First: CC(C)C(=O)Nc1cccc(C2CCN(Cc3c[nH]c4c(-c5cccc(Cl)c5)cccc34)CC2)c1 [Example 520]
Second: CC(C)C(=O)Nc1cccc(C2CCN(Cc3cn(-c4ccc([N+](=O)[O-])cc4)c4ccccc34)CC2)c1 [Example 438]
The Ki of the first is 100-fold higher: 135 nM for the first, 1.3 nM for the second.

First: O=C(Nc1cccc(C2CCN(Cc3c[nH]c4ccc(F)cc34)CC2)c1)C1CC1 [Example 481]
Second: O=C(Nc1cccc(C2CCN(Cc3cn(-c4cccc(Cl)c4)c4ccccc34)CC2)c1)C1CC1 [Example 463]
The Ki of the first is 39-fold higher: 664 nM for the first, 17.2 nM for the second.

First: CCCS(=O)(=O)N[C@@H](CCN1CCC(c2cccc(NC(=O)C(C)C)c2)CC1)c1ccccc1 [Example 601]
Second: CC(C)C(=O)Nc1cccc(C2CCN(CCCCC(=O)c3ccc(Cl)cc3)CC2)c1 [Example 675]
The Ki of the first is 4.4-fold higher: 144 nM for the first, 32.6 nM for the second. The second binds more tightly here.

Compared with `Cc1onc(-c2c(Cl)cccc2Cl)c1C(=O)NCCCCN1CCC(c2cccc(NC(=O)C(C)C)c2)CC1` [Example 651], `CC(C)C(=O)Nc1cccc(C2CCN(CCCCNC(=O)c3cc(Cl)cc(Cl)c3)CC2)c1` [Example 655] is 1.9-fold higher in Ki: 16.7 nM for the first, 31.1 nM for the second. The first binds more tightly here.

Compared with `O=C(Nc1cccc(C2CCN(Cc3cn(-c4ccccc4)c4ccccc34)CC2)c1)C1CC1` [Example 465], `CCC(=O)Nc1ccc(C2CCN(CCCc3c(-c4ccccc4)n(-c4ccccc4)c4ccccc34)CC2)cc1` [Example 798] is 44-fold higher in Ki: 10.7 nM for the first, 475 nM for the second. The first binds more tightly here.

With `COc1ccc(C(=O)NCCCCN2CCC(c3cccc(NC(=O)C(C)C)c3)CC2)cc1OC` [Example 679] the Ki was 97.9 nM.
